Results reported in patent publication US4886806A, “Flavone-3-carboxylic acids compounds and pharmaceutical compositions containing them” (Kali-Chemie Pharma GmbH, priority 1987, dated 1989).

Assays:
[1] = test system: male mice; experiment: Determination of the minimum toxic dose; format: in vivo; conditions: max. dose 300 mg/kg, 24 h
Description: 3. Determination of the minimum toxic dose.
Male mice of 20 to 25 g weight were given maximal doses of 300 mg/kg of test substance per os. The animals were carefully watched over a period of three hours for toxicity symptoms. Over a period of twenty-four hours after administration, all symptoms and deaths were recorded. Associated symptoms were also watched and recorded. If death or strongly toxic symptoms were noted, further mice were given increasingly lower doses. The lowest dose which brought about death or strongly toxic symptoms was reported as the minimum toxic dose.

[2] = test system: oxygen radical-forming activity of peritoneal exudate cells (PEC) of mice; experiment: Spontaneous CL and induced CL chemiluminescence test: inhibition of oxygen radical liberation from peritoneal exudate cells (30 min preincubation); format: cell-based; design: concentration or dose not given beside the values; conditions: for Inhibition in vitro of the oxygen radical liberation, Chemiluminescence Test % inhibition, Ind. CL: induced CL, after ZyC3b activation; for Inhibition in vitro of the oxygen radical liberation, Chemiluminescence Test % inhibition, Spnt. CL: spontaneous CL, before ZyC3b
Description: 1. To determine the inhibiting effect on the oxygen radical-forming activity of inflamed cells, the in vitro inhibition of the release of oxygen radicals from activated peritoneal exudate cells (=PEC) of mice was determined in the chemiluminescence (CL) test according to the method of Mueller-Peddinghaus (Int. J. Immunopharmac. 6, 455-466 (1984)). […] The intensity of the chemiluminescence is a measurement of the oxygen radical content in the suspension and thus the degree of activity of the inflamed cells. In this, three functionally different parameters are detected, the spontaneous CL, the induced CL and the peak CL. The spontaneous CL and the induced CL on the one hand and the peak CL on the other hand differ from each other because in the first two parameters the test substances are in contact with the cells for a 30 minute preincubation period before the inflammation irritant is added, whereas with the peak CL the cells are first stimulated, and the test substance is added at the peak of their activity. The measurement of the spontaneous CL thus detects the influence of the test substance on the relative rest activity of inflamed cells, the induced CL represents the effect of the test substances on the activatability of the cells and the inhibition of the peak CL indicates the effect of the test substances on the maximum activity of the inflamed cells. 1.1 Production of PEC suspension used in the test. In order to induce the PEC formation, female mice of 20-25 g body weight were each injected i.p. with 2 ml of a 3% solution of thioglycollate in sterile isotonic sodium chloride solution. Twenty four hours after the thioglycollate injection the cells, which predominantly consisted of polymorphonuclear leucocytes, were recovered by washing out of the abdominal cavity and washed twice. As cell culture medium there was added a commercially available solution under the designation RPMI 1640 (pH 7.2) (produced by Flow Laboratories, […], Germany), which contains 10% fetal calf serum (FCS, produced by Seromed GmbH, Munich, Germany) 18 μmol/l sodium bicarbonate and 2 μmol/l L-glutamine. The cell pellets of four animals each time were resuspended in cell culture medium, collected together and the suspension was made up to 2×10^6 cells per ml with cell culture medium. The cell suspensions were kept under ice cooling until their use the same day. 1.2 Production of the complement opsonized zymosan (=ZyC3 b) suspension used for activation. 200 mg zymosan (glycoprotein mixture isolated from the cell walls of brewer's yeast, Sacchomyces […], produced by Sigma Chemical Co., Munich, Germany) were suspended in 10 ml phosphate buffer solution according to Dulbecco (produced by Flow Laboratories, […], Germany), well stirred and heated for thirty minutes in a water bath to 100° C. After cooling, it was centrifuged for five minutes at 4° C. and at 600 ×g and the supernatant was discarded. The sediment was resuspended in 50 ml human serum and incubated for thirty minutes at 37° C. in a shaking water bath. Then it was centrifuged for five minutes at 600 ×g and 420 C., the supernatant decanted and the sediment washed with phosphate buffer solution. The working suspension of 8×10^-3 g ZyC3 b/ml was produced from the sediment by dilution with phosphate buffer solution (Mueller-Peddinghaus et al., Zbl. Vet. Med. B. 30, 559-575). 1.3 Chemiluminescence (CL) measurement (Peak-CL). […] At the end of this preincubation phase, 100 μl lucigenin were added, and in the course of the subsequent sixteen minute incubation phase the spontaneous CL parameter was determined with two measuring points. Then 100 μl ZyC3 b+100 μl phosphate buffer were added, and during the course of the subsequent twenty-four minute cell activation the induced CL parameter was measured with three measuring points. All measurements were determined twice. The parameters spontaneous CL and induced CL were determined on the same day with two separate cell pools.

[3] = test system: carrageenin foot edema in male Wistar rats; experiment: Inhibition of carrageenin foot edema in rats (Winter et al.); format: in vivo; conditions: Rattus norvegicus, 2 h after irritant; for inhibition in vivo at 100 µmol/kg: 100 μmol/kg p.o.
Description: A similar volume of isotonic sodium chloride solution was injected in the left hind foot. The volume of the each rat's foot was measured plethysmometrically both before and two hours after administration of the irritant, and the swelling of the foot volume after the carrageenin application was compared to the foot which was treated only with sodium chloride solution The inhibition of edema formation by the test substances in the treated animals was compared in percentage terms with the animals of the untreated control group.

Compound	Minimal toxic dose mg/kg mouse p.o. [1] [mg/kg]	Inhibition in vitro of the oxygen radical liberation, Chemiluminescence Test % inhibition, Ind. CL [2] [%]	Inhibition in vitro of the oxygen radical liberation, Chemiluminescence Test % inhibition, Spnt. CL [2] [%]	inhibition in vivo at 215 µmol/kg ([3]; ip, 215 μmol/kg i.p.) [%]	inhibition in vivo at 100 µmol/kg ([3]; po) [%]	inhibition in vivo at 215 µmol/kg ([3]; po, 215 μmol/kg p.o.) [%]
Cl.O=C(c1c(-c2ccccc2)oc2ccccc2c1=O)N1CCN(c2ccccn2)CC1 [Example 1c, 3-{[4-(2-Pyridyl)-piperazin-1-yl]-carbonyl}flavone hydrochloride]	> 300	39	49	55	44	
O.O=C(O)C(O)C(O)C(=O)O.O=C(c1c(-c2ccccc2)oc2ccccc2c1=O)N1CCN(Cc2ccccc2)CC1 [Example 2b, 3-[(4-benzyl-piperazin-1-yl)-carbonyl]flavone tartrate monohydrate]	> 300	54	67		25	
CCN(CC)CCCOC(=O)c1c(-c2ccccc2)oc2ccccc2c1=O.Cl [Example 3b, 3-[3-(diethylamino)propoxycarbonyl]flavone hydrochloride]	300	83	94			
O=C(NCCCCN1CCN(c2ccccn2)CC1)c1c(-c2ccccc2)oc2ccccc2c1=O [Example 4e, 3-{4-[4-(2-pyridyl)-piperazin-1-yl]-butylaminocarbonyl}flavone]	300	82	95	54		50
COc1cc(-c2oc3ccccc3c(=O)c2C(=O)N2CCN(c3ccccn3)CC2)cc(OC)c1OC [Example 7a, 3',4',5'-trimethoxy-3-{[4-(2-pyridyl)-piperazin-1-yl]-carbonyl}flavone]	> 300	65	75			
COc1cc(-c2oc3ccccc3c(=O)c2C(=O)N2CCN(c3ccccn3)CC2)cc(OC)c1OC [Example 7b, 3',4',5'-trimethoxy-3-{[4-(2-pyridyl)-piperazin-1-yl]-carbonyl}flavone]	> 300	50	61			40
O.O.O=C(O)C(O)C(O)C(=O)O.O=C(c1c(-c2cc(O)c(O)c(O)c2)oc2ccccc2c1=O)N1CCN(Cc2ccccc2)CC1 [Example 14e, 3',4',5'-trihydroxy-3-[(4-benzylpiperazin-1-yl)carbonyl] -flavone tartrate dihydrate]	> 300	99	98	33		
CN1CCN(CCCCNC(=O)c2c(-c3ccccc3)oc3ccccc3c2=O)CC1 [Example 24]	> 300	14	55			
O=C(c1c(-c2cccc(O)c2)oc2ccccc2c1=O)N1CCN(Cc2ccccc2)CC1 [Example 30]	> 300	85	85			
COc1ccc(-c2oc3ccccc3c(=O)c2C(=O)N2CCN(c3ccccn3)CC2)cc1OC [Example 32b]	> 300	65	71			
COc1cc(OC)c2c(=O)c(C(=O)N3CCN(c4ccccn4)CC3)c(-c3ccccc3)oc2c1 [Example 34]		55	54			30
CC(=O)Oc1cc(-c2oc3ccccc3c(=O)c2C(=O)N2CCN(c3ccccn3)CC2)cc(OC(C)=O)c1OC(C)=O [Example 39b]		99	99	62		
O=C(NCCc1ccccn1)c1c(-c2cc(O)c(O)c(O)c2)oc2ccccc2c1=O [Example 53]		83	73	50		
COc1cc(-c2oc3ccccc3c(=O)c2C(=O)NCCCCN2CCN(c3ncccn3)CC2)cc(OC)c1OC [Example 54]	> 300	83	91	40		
